From article PMC8322037 (International Journal of Biological Macromolecules, 2021)

Molecular target: SARS-CoV-2 3CL^pro (Severe acute respiratory syndrome coronavirus 2, UniProt P0DTD1)
Assay: biochemical
Settings: for Ratio (IC50 0.5 min / IC50 60 min): IC50 shift between 0.5 min and 60 min preincubation

Compound	Ratio (IC50 0.5 min / IC50 60 min)	IC50 (IC50 0.5 (min)) [µM]	IC50 (IC50 60 (min)) [µM]	IC50 (IC50 (three different doses), assayed by using three different doses, Fig. 4) [µM]
Myricitrin	8.32			
O=C1c2c(O)cc(O)cc2OC(c2ccc(O)c(O)c2)C1O (centres unmarked) [Taxifolin]	>2.75	> 200	72.7	10 to 100
